According to patent US20080063704A1, “Stable gabapentin compositions” (priority 2004, published 2008):

Experiments:
Assay type in all cases: physicochemical
[1] = Pre-formulation excipient compatibility study: HPLC assay
Excerpt: (§1) All the ingredients were passed through 20 mesh screen and blended together. The results of all the pre-formulation compatibility studies are given in Tables 25 to 39, including comparative results for the drug substance (Table 39) and UK reference product (Table 38) as controls.
(§2) Aim: To carry out preformulation excipient compatibility studies for Gabapentin capsules
(§3) Binary mixtures to be evaluated (with and without water as necessary):
(§4) 1. Drug and diluents (1:0.5)
(§5) 2. Drug and lubricants(1:0.1)
(§6) 3. Drug and solubilizer (1:0.001)
(§7) 4. Proposed formulation from the in vitro formulation trials to confirm the extent of interactions and identify suitably stable formulations.
(§8) Where humidity controls are not available a defined amount of water may be added to the samples. Storage of samples was in petridishes and in stoppered glass vials.
(§9) The following tests were performed at each interval:
2. HPLC assay (as for HPLC related substances assay but calibrated for gabapentin resolution rather than for related substances)

[2] = Pre-formulation excipient compatibility study: Appearance
Excerpt: as §1, §2, §3, §4, §5, §6, §7, §8, §9
(§10) The following tests were performed at 14 and 28 day intervals.

[3] = Pre-formulation excipient compatibility study: HPLC assay for related substances
Excerpt: HPLC Assay for Related Substances
as §1, §2, §3, §4, §5, §6, §7
Significant degradation is defined as
1. >0.5% w/w formation of lactam degradation product at conditions up to 40° C./75% RH.
2. Formation of other degradants at levels >0.1% w/w.
3. Greater relative instability of mixture or formulation to Gabapentin drug substance and Neurotonin capsules.
as §8, §10
3. HPLC assay for related substances

NCC1(CC(=O)O)CCCCC1 [Gabapentin]
98.4%: Assay ([1]; 40° C./75% RH, 14 days)
98.5%: Assay ([1]; 50° C., 7 days) | Assay ([1]; 50° C., 14 days)
0.004%: Impurities a) Lactam content ([3]; 50° C., 14 days) | Impurities a) Lactam content ([3]; 50° C., 28 days)
White: Description ([2]; 25° C./60% RH, 3 days) | Description ([2]; 25° C./60% RH, 7 days) | Description ([2]; 25° C./60% RH, 14 days) | Description ([2]; 25° C./60% RH, 28 days) | Description ([2]; 40° C./75% RH, 3 days) | Description ([2]; 40° C./75% RH, 7 days) | Description ([2]; 40° C./75% RH, 14 days) | Description ([2]; 40° C./75% RH, 28 days) | Description ([2]; 50° C., 3 days) | Description ([2]; 50° C., 7 days) | Description ([2]; 50° C., 14 days) | Description ([2]; 50° C., 28 days) | Description ([2]; Initial)
98.6%: Assay ([1]; 25° C./60% RH, 7 days) | Assay ([1]; 25° C./60% RH, 14 days)
98.51%: Assay ([1]; 25° C./60% RH, 28 days)
98.53%: Assay ([1]; 40° C./75% RH, 7 days)
Nil: Impurities a) Lactam content ([3]; 25° C./60% RH, 14 days) | Impurities b) Single largest individual Impurities ([3]; 25° C./60% RH, 14 days) | Impurities c) Total other Impurities ([3]; 25° C./60% RH, 14 days) | Impurities d) Total Impurities ([3]; 25° C./60% RH, 14 days) | Impurities a) Lactam content ([3]; 25° C./60% RH, 28 days) | Impurities b) Single largest individual Impurities ([3]; 25° C./60% RH, 28 days) | Impurities c) Total other Impurities ([3]; 25° C./60% RH, 28 days) | Impurities d) Total Impurities ([3]; 25° C./60% RH, 28 days) | Impurities a) Lactam content ([3]; 40° C./75% RH, 14 days) | Impurities b) Single largest individual Impurities ([3]; 40° C./75% RH, 14 days) | Impurities c) Total other Impurities ([3]; 40° C./75% RH, 14 days) | Impurities d) Total Impurities ([3]; 40° C./75% RH, 14 days) | Impurities a) Lactam content ([3]; 40° C./75% RH, 28 days) | Impurities b) Single largest individual Impurities ([3]; 40° C./75% RH, 28 days) | Impurities c) Total other Impurities ([3]; 40° C./75% RH, 28 days) | Impurities d) Total Impurities ([3]; 40° C./75% RH, 28 days) | Impurities b) Single largest individual Impurities ([3]; 50° C., 14 days) | Impurities c) Total other Impurities ([3]; 50° C., 14 days) | Impurities d) Total Impurities ([3]; 50° C., 14 days) | Impurities b) Single largest individual Impurities ([3]; 50° C., 28 days) | Impurities c) Total other Impurities ([3]; 50° C., 28 days) | Impurities d) Total Impurities ([3]; 50° C., 28 days) | Impurities a) Lactam content ([3]; Initial) | Impurities b) Single largest individual Impurities ([3]; Initial) | Impurities c) Total other Impurities ([3]; Initial) | Impurities d) Total Impurities ([3]; Initial)
98.1%: Assay ([1]; 50° C., 28 days)
99.4%: Assay ([1]; Initial)
97.79%: Assay ([1]; 40° C./75% RH, 28 days)
